Values quoted from earlier work, collected in patent US20110045089A1, “VITAMIN K3 DERIVATIVE / NSA FORMULATION” (priority 2009, published 2011).

Legend:
[1] = for Total vitamin retention %: 1 × 2 × 3 × 4 (product of the four stress factors); for Vitamin retention, stress factor 1: vitamin premix without choline chloride: 2 months; for Vitamin retention, stress factor 4: petfood storage time: 8 months; for Vitamin retention, stress factor 2: extrusion temperature: 105° C.; for Vitamin retention, stress factor 3: drying/enrobing: 180° C.
[2] = 80° C., high humidity
[3] = premix containing choline chloride, after 6 months of storage (FIG. 2)

SMILES | Total vitamin retention % [1] | Vitamin retention, stress factor 1: vitamin premix without choline chloride [1] | Vitamin retention, stress factor 4: petfood storage time [1] | Vitamin retention, stress factor 2: extrusion temperature [1] | Vitamin retention, stress factor 3: drying/enrobing [1] | Fraction decomposed during pelleting process [2] | Original amount of K3 remaining in premix [3]
CC1(S(=O)(=O)O)CC(=O)c2ccccc2C1=O.NC(=O)c1cccnc1 (stereo not shown) [MNB, Nicotinamide Menadione Bisulfite] | 25% | 100% | 47% | 70% | 76% | 50% | ≤ 70%
CC1(S(=O)(=O)O)CC(=O)c2ccccc2C1=O.Cc1cc(C)nc(O)n1 (stereo not shown) [MPB, 2-hydroxy-4,6-dimethyl-pyrimidinium Menadione Bisulfite] | 19% | 100% | 42% | 65% | 70% |  | 
CC1(S(=O)(=O)[O-])CC(=O)c2ccccc2C1=O.[Na+] (stereo not shown) [MSB, Menadione Sodium Bisulphite] | 5% | 98% | 27% | 50% | 37% |  | 
NC(=O)c1cccnc1 [Niacinamide, nicotinamide] | 58% | 100% | 79% | 87% | 84% |  | 
